Converted amounts (≈) assume the structure as drawn.
Legend:
Assay type in all cases: cell-based, Mycobacterium tuberculosis
MDR-TB clinical strain = test: DST of MTB using the DAC system (MIC from time-lapse images); conditions: for susceptibility determined from the MIC data and the critical concentrations: DAC system, MDR strain; for MIC: Mycobacterium tuberculosis, 120 h
XDR-TB clinical strain = test: as above; conditions: for susceptibility determined from the MIC data and the critical concentrations: DAC system, XDR strain; for MIC: Mycobacterium tuberculosis, 120 h
M. tuberculosis H37Rv = test: as above; conditions: for MIC: Mycobacterium tuberculosis, 120 h, images over 5 days; for susceptibility of the strain (in words): from the MIC data
standard strain H37Rv = test: Inoculum effect test, DST on the DAC system
clinical strain MSH = test: Inoculum effect on clinical strains on the DAC system
Experimental: (§1) Mycobacterium tuberculosis identified by ZN staining and grown from an L-J slope or MGIT tube and was subjected to DST. For the preparation of inoculation from the LJ culture, colonies up to 14 days were extracted from the grown culture. The colonies were shaken with glass beads to crush large lumps. To obtain a high density (˜5×10^9 CFU/ml), the suspension was centrifuged at 3000 g for 10 min and pellets were resuspended in sterile PBS. Subsequently, the suspension was added to liquid agarose, inoculated in a bacteria-agarose mixture within the range of 10^1 to 5×10^8 CFU/ml, and loaded in the main channel After solidification, 7H9 broth containing each antibiotic was applied to the chamber. All bacterial cells were imaged with an inverted optical microscope (IS71, Olympus).
(§2) Clinical strains express various phenotypes, particularly, in drug susceptibility. […] Rifampicin, isoniazid, streptomycin, and ethambutol were used as test drugs. For the 131 strains, the highest concentration was 1.3×10^9.

clinical strain 131 = test: as above
Experimental: as §1, §2

clinical strain 1088 = test: as above
Experimental: as §1, §2

clinical strain CMS = test: as above
Experimental: as §1, §2

clinical strain KHS = test: as above
Experimental: as §1, §2

clinical strain CYD = test: as above
Experimental: as §1, §2

[1] = inoculum 10^3/mL, DAC, unit inferred
[2] = inoculum 10^4/mL, DAC, unit inferred
[3] = inoculum 10^5/mL, DAC, unit inferred
[4] = inoculum 10^6/mL, MAC2, unit inferred
[5] = inoculum 10^7/mL, MAC2, unit inferred

Compound: CC[C@@H](CO)NCCN[C@@H](CC)CO [EMB, ethambutol]
- susceptibility determined from the MIC data and the critical concentrations (MDR-TB clinical strain): R
- MIC (MDR-TB clinical strain): > 10 µg/mL
- susceptibility determined from the MIC data and the critical concentrations (XDR-TB clinical strain): R
- MIC (XDR-TB clinical strain): 10 µg/mL (≈ 48.9 µM)
- susceptibility determined from the MIC data and the critical concentrations (M. tuberculosis H37Rv): S
- MIC (M. tuberculosis H37Rv): 5 µg/mL (≈ 24.5 µM)
- susceptibility of the strain (in words) (M. tuberculosis H37Rv): sensitive
- MIC (DAC) (standard strain H37Rv; [1]): 2.5 µg/mL (≈ 12.2 µM)
- MIC (DAC) (standard strain H37Rv; [2]): 1.25 µg/mL (≈ 6.12 µM)
- MIC (DAC) (standard strain H37Rv; [3]): 1.25 µg/mL (≈ 6.12 µM)
- MIC (DAC) (standard strain H37Rv; [4]): 2.5 µg/mL (≈ 12.2 µM)
- MIC (DAC) (standard strain H37Rv; [5]): 2.5 µg/mL (≈ 12.2 µM)
- MIC (DAC) (clinical strain MSH; [2]): 1.25 µg/mL (≈ 6.12 µM)
- MIC (DAC) (clinical strain MSH; [3]): 2.5 µg/mL (≈ 12.2 µM)
- MIC (DAC) (clinical strain MSH; [4]): 2.5 µg/mL (≈ 12.2 µM)
- MIC (DAC) (clinical strain MSH; [5]): 1.25 µg/mL (≈ 6.12 µM)
- MIC (DAC) (clinical strain 131; [1]): > 10 µg/mL
- MIC (DAC) (clinical strain 131; [2]): > 10 µg/mL
- MIC (DAC) (clinical strain 131; [3]): > 10 µg/mL
- MIC (DAC) (clinical strain 131; [4]): > 10 µg/mL
- MIC (DAC) (clinical strain 131; [5]): > 10 µg/mL
- MIC (DAC) (clinical strain 1088; [1]): 10 µg/mL (≈ 48.9 µM)
- MIC (DAC) (clinical strain 1088; [2]): 10 µg/mL (≈ 48.9 µM)
- MIC (DAC) (clinical strain 1088; [3]): 10 µg/mL (≈ 48.9 µM)
- MIC (DAC) (clinical strain 1088; [4]): ≥ 10 µg/mL
- MIC (DAC) (clinical strain 1088; [5]): ≥ 10 µg/mL
- MIC (DAC) (clinical strain CMS; [2]): 1.25 µg/mL (≈ 6.12 µM)
- MIC (DAC) (clinical strain CMS; [3]): 1.25 µg/mL (≈ 6.12 µM)
- MIC (DAC) (clinical strain CMS; [4]): 2.5 µg/mL (≈ 12.2 µM)
- MIC (DAC) (clinical strain CMS; [5]): 2.5 µg/mL (≈ 12.2 µM)
- MIC (DAC) (clinical strain KHS; [2]): 2.5 µg/mL (≈ 12.2 µM)
- MIC (DAC) (clinical strain KHS; [3]): 1.25 µg/mL (≈ 6.12 µM)
- MIC (DAC) (clinical strain KHS; [4]): 2.5 µg/mL (≈ 12.2 µM)
- MIC (DAC) (clinical strain KHS; [5]): 2.5 µg/mL (≈ 12.2 µM)
- MIC (DAC) (clinical strain CYD; [2]): 2.5 µg/mL (≈ 12.2 µM)
- MIC (DAC) (clinical strain CYD; [3]): 2.5 µg/mL (≈ 12.2 µM)
- MIC (DAC) (clinical strain CYD; [4]): 2.5 µg/mL (≈ 12.2 µM)
- MIC (DAC) (clinical strain CYD; [5]): 5 µg/mL (≈ 24.5 µM)

Compound: NNC(=O)c1ccncc1 [INH, isoniazid]
- susceptibility determined from the MIC data and the critical concentrations (MDR-TB clinical strain): R
- MIC (MDR-TB clinical strain): > 0.2 µg/mL
- susceptibility determined from the MIC data and the critical concentrations (XDR-TB clinical strain): R
- MIC (XDR-TB clinical strain): > 0.2 µg/mL
- susceptibility determined from the MIC data and the critical concentrations (M. tuberculosis H37Rv): S
- MIC (M. tuberculosis H37Rv): 0.05 µg/mL (≈ 0.365 µM)
- susceptibility of the strain (in words) (M. tuberculosis H37Rv): sensitive
- MIC (DAC) (standard strain H37Rv; [1]): 0.05 µg/mL (≈ 0.365 µM)
- MIC (DAC) (standard strain H37Rv; [2]): 0.05 µg/mL (≈ 0.365 µM)
- MIC (DAC) (standard strain H37Rv; [3]): 0.05 µg/mL (≈ 0.365 µM)
- MIC (DAC) (standard strain H37Rv; [4]): 0.05 µg/mL (≈ 0.365 µM)
- MIC (DAC) (standard strain H37Rv; [5]): 0.05 µg/mL (≈ 0.365 µM)
- MIC (DAC) (clinical strain MSH; [2]): 0.025 µg/mL (≈ 0.182 µM)
- MIC (DAC) (clinical strain MSH; [3]): 0.025 µg/mL (≈ 0.182 µM)
- MIC (DAC) (clinical strain MSH; [4]): 0.025 µg/mL (≈ 0.182 µM)
- MIC (DAC) (clinical strain MSH; [5]): 0.025 µg/mL (≈ 0.182 µM)
- MIC (DAC) (clinical strain 131; [1]): 0.2 µg/mL (≈ 1.46 µM)
- MIC (DAC) (clinical strain 131; [2]): > 0.2 µg/mL
- MIC (DAC) (clinical strain 131; [3]): > 0.2 µg/mL
- MIC (DAC) (clinical strain 131; [4]): > 0.2 µg/mL
- MIC (DAC) (clinical strain 131; [5]): > 0.2 µg/mL
- MIC (DAC) (clinical strain 1088; [1]): ≥ 0.2 µg/mL
- MIC (DAC) (clinical strain 1088; [2]): 0.2 µg/mL (≈ 1.46 µM)
- MIC (DAC) (clinical strain 1088; [3]): 0.2 µg/mL (≈ 1.46 µM)
- MIC (DAC) (clinical strain 1088; [4]): ≥ 0.2 µg/mL
- MIC (DAC) (clinical strain 1088; [5]): ≥ 0.2 µg/mL
- MIC (DAC) (clinical strain CMS; [2]): 0.05 µg/mL (≈ 0.365 µM)
- MIC (DAC) (clinical strain CMS; [3]): 0.025 µg/mL (≈ 0.182 µM)
- MIC (DAC) (clinical strain CMS; [4]): 0.025 µg/mL (≈ 0.182 µM)
- MIC (DAC) (clinical strain CMS; [5]): 0.05 µg/mL (≈ 0.365 µM)
- MIC (DAC) (clinical strain KHS; [2]): 0.05 µg/mL (≈ 0.365 µM)
- MIC (DAC) (clinical strain KHS; [3]): 0.025 µg/mL (≈ 0.182 µM)
- MIC (DAC) (clinical strain KHS; [4]): 0.025 µg/mL (≈ 0.182 µM)
- MIC (DAC) (clinical strain KHS; [5]): 0.025 µg/mL (≈ 0.182 µM)
- MIC (DAC) (clinical strain CYD; [2]): 0.05 µg/mL (≈ 0.365 µM)
- MIC (DAC) (clinical strain CYD; [3]): 0.025 µg/mL (≈ 0.182 µM)
- MIC (DAC) (clinical strain CYD; [4]): 0.025 µg/mL (≈ 0.182 µM)
- MIC (DAC) (clinical strain CYD; [5]): 0.025 µg/mL (≈ 0.182 µM)

Compound: CO[C@H]1/C=C/O[C@@]2(C)Oc3c(C)c(O)c4c(O)c(c(/C=N/N5CCN(C)CC5)c(O)c4c3C2=O)NC(=O)/C(C)=C\C=C\[C@H](C)[C@H](O)[C@@H](C)[C@@H](O)[C@@H](C)[C@H](OC(C)=O)[C@@H]1C [RFP, rifampicin]
- susceptibility determined from the MIC data and the critical concentrations (MDR-TB clinical strain): R
- MIC (MDR-TB clinical strain): > 2 µg/mL
- susceptibility determined from the MIC data and the critical concentrations (XDR-TB clinical strain): R
- MIC (XDR-TB clinical strain): > 2 µg/mL
- susceptibility determined from the MIC data and the critical concentrations (M. tuberculosis H37Rv): S
- MIC (M. tuberculosis H37Rv): 0.25 µg/mL (≈ 0.304 µM)
- MIC (DAC) (standard strain H37Rv; [1]): 0.5 µg/mL (≈ 0.608 µM)
- MIC (DAC) (standard strain H37Rv; [2]): 0.5 µg/mL (≈ 0.608 µM)
- MIC (DAC) (standard strain H37Rv; [3]): 0.5 µg/mL (≈ 0.608 µM)
- MIC (DAC) (standard strain H37Rv; [4]): 0.5 µg/mL (≈ 0.608 µM)
- MIC (DAC) (standard strain H37Rv; [5]): 0.5 µg/mL (≈ 0.608 µM)
- MIC (DAC) (clinical strain MSH; [2]): 0.25 µg/mL (≈ 0.304 µM)
- MIC (DAC) (clinical strain MSH; [3]): 0.25 µg/mL (≈ 0.304 µM)
- MIC (DAC) (clinical strain MSH; [4]): 0.25 µg/mL (≈ 0.304 µM)
- MIC (DAC) (clinical strain MSH; [5]): 0.5 µg/mL (≈ 0.608 µM)
- MIC (DAC) (clinical strain 131; [1]): > 2 µg/mL
- MIC (DAC) (clinical strain 131; [2]): > 2 µg/mL
- MIC (DAC) (clinical strain 131; [3]): > 2 µg/mL
- MIC (DAC) (clinical strain 131; [4]): > 2 µg/mL
- MIC (DAC) (clinical strain 131; [5]): > 2 µg/mL
- MIC (DAC) (clinical strain 1088; [1]): ≥ 2 µg/mL
- MIC (DAC) (clinical strain 1088; [2]): ≥ 2 µg/mL
- MIC (DAC) (clinical strain 1088; [3]): ≥ 2 µg/mL
- MIC (DAC) (clinical strain 1088; [4]): ≥ 2 µg/mL
- MIC (DAC) (clinical strain 1088; [5]): ≥ 2 µg/mL
- MIC (DAC) (clinical strain CMS; [2]): 0.25 µg/mL (≈ 0.304 µM)
- MIC (DAC) (clinical strain CMS; [3]): 0.25 µg/mL (≈ 0.304 µM)
- MIC (DAC) (clinical strain CMS; [4]): 0.5 µg/mL (≈ 0.608 µM)
- MIC (DAC) (clinical strain CMS; [5]): 0.5 µg/mL (≈ 0.608 µM)
- MIC (DAC) (clinical strain KHS; [2]): 0.25 µg/mL (≈ 0.304 µM)
- MIC (DAC) (clinical strain KHS; [3]): 0.25 µg/mL (≈ 0.304 µM)
- MIC (DAC) (clinical strain KHS; [4]): 0.25 µg/mL (≈ 0.304 µM)
- MIC (DAC) (clinical strain KHS; [5]): 0.5 µg/mL (≈ 0.608 µM)
- MIC (DAC) (clinical strain CYD; [2]): 0.25 µg/mL (≈ 0.304 µM)
- MIC (DAC) (clinical strain CYD; [3]): 0.25 µg/mL (≈ 0.304 µM)
- MIC (DAC) (clinical strain CYD; [4]): 0.25 µg/mL (≈ 0.304 µM)
- MIC (DAC) (clinical strain CYD; [5]): 0.5 µg/mL (≈ 0.608 µM)
